How the values were obtained:
[1] = test system: LNCap prostate cancer cells; assay: WST-1 cell growth inhibition assay, LNCaP; format: cell-based; details: Homo sapiens, 120 h, WST-1, five days
Method: (§1) FIG. 5 presents inhibition of cell growth by embelin in prostate cancer cells (PC-3 and LnCap) and its selectivity in normal human prostate epithelial cells (PrEC) and normal human fibroblast cell line, WI-38. 5000 cells per well in a 96-well cell culture plate were treated with various concentrations of embelin in triplicate. Five days later, the cell growth was measured by the WST-1 cell growth assay kit […] The cell growth results are expressed as the percent of control and calculated from the percent of absorbance of treated wells versus that of vehicle control.
(§2) Human prostate cancer cell lines (PC-3, LNCap, CL-1, DU-145), and normal human fibroblast cell line WI-38 were obtained from the American Type Culture Collection (ATCC), were grown and maintained in Dulbecco's modified Eagle's medium (DMEM) containing 10% FBS (Invitrogen Corporation). Normal human prostate epithelial cells (PrEC) were obtained from Clonetics (Cambrex Inc., MD) and maintained in the special medium provided by the company. […]
(§3) Cell growth was determined by the MTT-based assay using Cell Proliferation Reagent WST-1 (Roche) according to the manufacturer's instruction. […] Absorbance was measured with a plate reader at […] with correction at […]. The results are expressed as the percent of absorbance of treated wells versus that of vehicle control.

[2] = test system: normal human prostate epithelial cells (PrEC); assay: WST-1 cell growth inhibition assay, PrEC; format: cell-based; details: 120 h, WST-1, five days
Method: as §1, §2, §3

[3] = test system: normal human fibroblast cell line WI-38; assay: WST-1 cell growth inhibition assay, WI-38; format: cell-based; details: 120 h, WI-38, WST-1, five days
Method: as §1, §2, §3

[4] = test system: PC-3 prostate cancer cells; assay: Annexin V-FITC apoptosis assay by flow cytometry, PC-3; format: cell-based, human; details: 48 hours
Method: FIG. 6 presents induction of apoptosis by embelin in PC-3 prostate cancer cells. 1×10^6 PC-3 cells per well in 6-well culture plates were treated with embelin for 48 hours, stained with Annexin V-FITC and propidium iodide for apoptosis by flow cytometry. The results are shown as percent of Annexin V-FITC positive apoptotic cells (n=3).
(§4) PC-3 cells, 1×10^6 cells per well in 6-well culture plates, were treated in triplicate with various concentrations of embelin for 24 or 48 hours, then trypsinized and washed with PBS. For Jurkat cells, 1×10^6 Jurkat-XIAP or Jurkat-Vec cells per well in 6-well culture plates, were treated with etoposide, embelin, or both for 15 hours. For flow cytometry apoptosis assay, cells were stained with Annexin V-FITC and propidium iodide using the Annexin-V-FLUOS Kit (Roche) according to the manufacturer's instruction. The fluorescence of Annexin V-FITC and propidium iodide of individual cells was analyzed by FACScan. The results are shown as percent of Annexin V-FITC positive apoptotic cells.

caspase-9 in PC-3 cells = assay: Activation of caspase-9 assay, PC-3; format: cell-based, human; details: for increase in activated caspase-9 as compared to vehicle treated control cells / PC-3 cells positively stained for activated caspase-9: 42 hrs; for PC-3 cells positively stained for activated caspase-9: vehicle control 3.1%
Method: FIGS. 7A and 7B show the activation of caspase-9 by embelin in PC-3 prostate cancer cells and its selectivity in normal prostate epithelial cells. 1×10^6 PC-3 or PrEC cells per well in 6-well culture plates were treated with embelin for 48 hours. […] The cells were collected and stained of active caspase-9 by CaspGLOW Red Active Caspase-9 Staining Kit, and analyzed by flow cytometry in PI channel.
1×10^6 PC-3 cells per well in 6-well culture plates, were treated with various concentrations of embelin, or the same amount of solvent DMSO as vehicle control, for up to 48 hr. […] The cells were collected for staining of active caspase-9 by CaspGLOW Red Active Caspase-9 Staining Kit (BioVision, Inc., Mountain View, Calif.) according to the manufacturer's instructions, with modification. Briefly, to each tube containing 1×10^6 treated or control cells in 0.3 ml complete culture medium was added 1 μl of Red-LEHD-FMK and incubated for 0.5 hr at 37° C. incubator with 5% CO2. For double staining with Annexin V-FITC, the cells were spun down and resuspended in 100 μl Binding Buffer containing 1× Annexin V-FITC from the Annexin-V-FLUOS Kit (Roche) and incubated at room temperature for 10 min. The cells were then washed two times with Wash Buffer from the Active Caspase-9 Staining Kit. The cells were resuspended in 0.3 ml Binding Buffer and analyzed by flow cytometry, using PI channel for active caspase-9 and FITC channel for apoptosis.
The active caspase-9 and Annexin V double stained cells were also observed under Zeiss Laser Scanning Confocal Microscope LSM 510 Meta, using the fluorescent filter sets for rhodamine (Red) and FITC (green) channels. Early apoptotic cells show green fluorescence on the cell membrane while caspase-9 positive cells show bright red staining in the cytoplasm. Photos were taken at original magnification of 630×.

Jurkat-Vec cells = assay: Annexin V-FITC apoptosis assay, Jurkat-Vec; format: cell-based; details: combination with etoposide, 15 hours
Method: FIGS. 8A and 8B present (A): Dose-dependent induction of apoptosis by etoposide in Jurkat cells transfected with vector control (Jurkat-Vec) and stably transfected with XIAP (Jurkat-XIAP cells); and (B): Induction of apoptosis by etoposide and embelin alone and in combination in Jurkat-Vec and Jurkat-XIAP cells. 1×10^6 Jurkat-XIAP or Jurkat-Vec cells per well in 6-well culture plates were treated with etoposide and embelin alone, or in combination for 15 hours, then stained with Annexin V-FITC and propidium iodide for apoptosis by flow cytometry. The results are shown as percent of Annexin V-FITC positive apoptotic cells.
as §4

[5] = target: XIAP BIR3 protein of human XIAP (residues 241-356) (Homo sapiens, UniProt P98170); details: read-out: IC50 (displacement of SM7F from XIAP BIR3); 10 nM SM7F, 0.060 μM XIAP BIR3; three independent experiments in triplicate
[6] = test system: methylcholanthrene-induced fibrosarcoma; details: methylcholanthrene-induced fibrosarcoma in albino rats (Chitra et al. 1994); cited from earlier work

XIAP BIR3 protein of human XIAP (residues 241-356), sequence (P98170 241-356): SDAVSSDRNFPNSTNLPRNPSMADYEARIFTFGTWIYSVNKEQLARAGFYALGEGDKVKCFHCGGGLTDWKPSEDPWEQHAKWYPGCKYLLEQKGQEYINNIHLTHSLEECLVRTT

IC50 [1]: 5.7 µM
IC50 [5]: 4.1 ± 1.1 µM
SMILES: CCCCCCCCCCCC1=C(O)C(=O)C=C(O)C1=O [embelin]
IC50 [2]: 20.1 µM
IC50 [3]: 19.3 µM
PC-3 cells that underwent apoptosis (Annexin V-FITC positive) ([4]; 25 μM): 30%
increase in apoptosis as compared to control cells ([4]; 25 μM): approximately 3 fold
PC-3 cells that underwent apoptosis (Annexin V-FITC positive) ([4]; 50 μM): 75%
increase in apoptosis as compared to control cells ([4]; 50 μM): ~9 fold
increase in activated caspase-9 as compared to vehicle treated control cells (caspase-9 in PC-3 cells; 20 μM): 10 fold
PC-3 cells positively stained for activated caspase-9 (caspase-9 in PC-3 cells; 20 μM): 33.0%
increase in activated caspase-9 as compared to vehicle treated control cells (caspase-9 in PC-3 cells; 40 μM): 20 fold
PC-3 cells positively stained for activated caspase-9 (caspase-9 in PC-3 cells; 40 μM): 62.1%
activation of caspase-9 in PC-3 cells (caspase-9 in PC-3 cells; in words): effectively activates caspase-9 in a dose-dependant manner
effect on etoposide-induced apoptosis in combination, compared to etoposide alone (Jurkat-Vec cells): did not increase
antitumor activity [6]: significant antitumor activity
